Where no end group is shown, it is not given here. The star is where a group is joined. Biotin = O=C1N[C@H]2[C@H](CS[C@H]2CCCCC(=O)*)N1
Tests used:
[1] = system: murine matriptase (primary keratinocytes); details: representative of 2 independent experiments; for labeling of matriptase in matriptase-deficient (KO) murine keratinocytes: lysates or pull downs (figure 6 lanes 4-6 and 10-12)
matriptase SPD = assay: Chromogenic assay: inhibition of matriptase SPD cleavage of S2288; details: representative of 3 independent experiments
matriptase-HAI-1 complex = assay: Reaction with / effect on matriptase-HAI-1 complex in Caco-2 cells (pH 6.0-induced)

O=C(CCCC[C@@H]1SC[C@@H]2NC(=O)N[C@@H]21)NCCSSCCC(=O)ON1C(=O)CC(S(=O)(=O)[O-])C1=O.[Na+] (some centres unmarked) [S-NHS-SS-biotin]
labeling of matriptase in matriptase-deficient (KO) murine keratinocytes [1]: No matriptase could be detected in lysates or pull downs

Biotin-RQRR [biotin-RQRR]
labeling of matriptase on WT murine keratinocytes by control peptide ([1]; 50 µM control peptide, WT keratinocytes (figure 6 lane 3)): No matriptase was detected
labeling of matriptase in matriptase-deficient (KO) murine keratinocytes [1]: No matriptase could be detected in lysates or pull downs

biotin-Arg-Gln-Arg-Arg-chloromethyl ketone
inhibition of peptidolytic activity of matriptase SPD after pre-incubation of inhibitor (matriptase SPD; 5 nM inhibitor pre-incubated 60 min at 37°C, 0.2 nM SPD, Hepes pH 7.4, S2288 300 µM, 405 nm): fully inhibiting the peptidolytic activity
inhibition of peptidolytic activity of matriptase SPD (matriptase SPD; 5 nM inhibitor, no pre-incubation (0 min), 0.2 nM SPD, Hepes pH 7.4, 10 min at 37°C, S2288 300 µM, 405 nm): fully inhibiting the peptidolytic activity
inhibition of matriptase SPD after pre-incubation of inhibitor (matriptase SPD; 50 µM inhibitor pre-incubated in aqueous solution 180 min at 37°C, 0.2 nM SPD, Hepes pH 7.4, 10 min at 37°C, S2288 300 µM, 405 nm): still sufficient to efficiently inhibit the activity
inhibition of matriptase SPD cleavage of chromogenic substrate at pH 6.0 (matriptase SPD; 50 µM inhibitor, 20 mM citric acid pH 6.0, 140 mM NaCl, 0.1% BSA, 10 min at 37°C, S2288 300 µM): no cleavage of the substrate was observed
labeling of matriptase in matriptase-deficient (KO) murine keratinocytes [1]: No matriptase could be detected in lysates or pull downs
labeling of matriptase after pH 6.0 pre-treatment (matriptase-HAI-1 complex formed) (matriptase-HAI-1 complex; 50 µM, 30 min at 37°C at pH 7.4 after 30 min pre-treatment at pH 6.0 (figure 4 lane 9)): but not when the cells had been exposed to pH 6.0 for 30 min
labeling of matriptase-HAI-1 complex (matriptase-HAI-1 complex; Caco-2, 50 µM, 30 min at 37°C, conclusion from pH 6.0 pre-treatment): matriptase-HAI-1 complex is not labeled
dissociation of matriptase-HAI-1 complex (matriptase-HAI-1 complex; under the conditions used in the study): not able to dissociate the matriptase-HAI-1 complex

Source: publication PMC3799725, “Detection of Active Matriptase Using a Biotinylated Chloromethyl Ketone Peptide” (PLoS ONE, 2013)
